Laboratory results published in ChEMBL document CHEMBL1201862, “PubChem BioAssay data set” (2004).
Active and inactive are the calls of the source.

Tests used:
[1] = biological target: Calcium/calmodulin-dependent protein kinase type II subunit gamma (Homo sapiens, UniProt Q13555); assay type: functional
[2] = biological target: Calcium/calmodulin-dependent protein kinase type II subunit delta (Homo sapiens, UniProt Q13557); assay type: functional
[3] = biological target: Calcium/calmodulin-dependent protein kinase type II subunit beta (Homo sapiens, UniProt Q13554); assay type: functional
[4] = biological target: Tyrosine-protein kinase FRK (Homo sapiens, UniProt P42685); assay type: functional;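 also: FRK tested as one member of a kinome panel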
Sequence of Tyrosine-protein kinase FRK (P42685 whole entry): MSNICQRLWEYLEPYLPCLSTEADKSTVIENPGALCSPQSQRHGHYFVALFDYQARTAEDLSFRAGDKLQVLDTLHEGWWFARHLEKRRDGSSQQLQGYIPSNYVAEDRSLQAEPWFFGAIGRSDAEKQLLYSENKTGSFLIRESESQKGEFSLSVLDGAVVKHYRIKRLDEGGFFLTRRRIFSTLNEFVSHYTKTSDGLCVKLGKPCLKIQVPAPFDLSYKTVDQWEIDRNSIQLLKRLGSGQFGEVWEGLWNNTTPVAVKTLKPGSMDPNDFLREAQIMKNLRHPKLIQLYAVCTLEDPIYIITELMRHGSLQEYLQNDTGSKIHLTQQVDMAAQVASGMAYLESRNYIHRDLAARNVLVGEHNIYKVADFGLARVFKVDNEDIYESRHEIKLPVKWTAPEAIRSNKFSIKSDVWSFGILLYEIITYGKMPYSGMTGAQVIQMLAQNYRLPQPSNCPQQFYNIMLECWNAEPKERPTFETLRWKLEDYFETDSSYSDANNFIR

[5] = biological target: Serine/threonine-protein kinase pim-1 (Homo sapiens, UniProt P11309); assay type: functional
[6] = biological target: Cell division cycle 7-related protein kinase (Homo sapiens, UniProt O00311); assay type: functional;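 also: value obtained from a kinome-wide kinase panel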
[7] = biological target: Homeodomain-interacting protein kinase 2 (Homo sapiens, UniProt Q9H2X6); assay type: functional;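 also: measured within a kinome-wide kinase profiling panel, HIPK2 being one panel member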
Sequence of Homeodomain-interacting protein kinase 2 (Q9H2X6 whole entry): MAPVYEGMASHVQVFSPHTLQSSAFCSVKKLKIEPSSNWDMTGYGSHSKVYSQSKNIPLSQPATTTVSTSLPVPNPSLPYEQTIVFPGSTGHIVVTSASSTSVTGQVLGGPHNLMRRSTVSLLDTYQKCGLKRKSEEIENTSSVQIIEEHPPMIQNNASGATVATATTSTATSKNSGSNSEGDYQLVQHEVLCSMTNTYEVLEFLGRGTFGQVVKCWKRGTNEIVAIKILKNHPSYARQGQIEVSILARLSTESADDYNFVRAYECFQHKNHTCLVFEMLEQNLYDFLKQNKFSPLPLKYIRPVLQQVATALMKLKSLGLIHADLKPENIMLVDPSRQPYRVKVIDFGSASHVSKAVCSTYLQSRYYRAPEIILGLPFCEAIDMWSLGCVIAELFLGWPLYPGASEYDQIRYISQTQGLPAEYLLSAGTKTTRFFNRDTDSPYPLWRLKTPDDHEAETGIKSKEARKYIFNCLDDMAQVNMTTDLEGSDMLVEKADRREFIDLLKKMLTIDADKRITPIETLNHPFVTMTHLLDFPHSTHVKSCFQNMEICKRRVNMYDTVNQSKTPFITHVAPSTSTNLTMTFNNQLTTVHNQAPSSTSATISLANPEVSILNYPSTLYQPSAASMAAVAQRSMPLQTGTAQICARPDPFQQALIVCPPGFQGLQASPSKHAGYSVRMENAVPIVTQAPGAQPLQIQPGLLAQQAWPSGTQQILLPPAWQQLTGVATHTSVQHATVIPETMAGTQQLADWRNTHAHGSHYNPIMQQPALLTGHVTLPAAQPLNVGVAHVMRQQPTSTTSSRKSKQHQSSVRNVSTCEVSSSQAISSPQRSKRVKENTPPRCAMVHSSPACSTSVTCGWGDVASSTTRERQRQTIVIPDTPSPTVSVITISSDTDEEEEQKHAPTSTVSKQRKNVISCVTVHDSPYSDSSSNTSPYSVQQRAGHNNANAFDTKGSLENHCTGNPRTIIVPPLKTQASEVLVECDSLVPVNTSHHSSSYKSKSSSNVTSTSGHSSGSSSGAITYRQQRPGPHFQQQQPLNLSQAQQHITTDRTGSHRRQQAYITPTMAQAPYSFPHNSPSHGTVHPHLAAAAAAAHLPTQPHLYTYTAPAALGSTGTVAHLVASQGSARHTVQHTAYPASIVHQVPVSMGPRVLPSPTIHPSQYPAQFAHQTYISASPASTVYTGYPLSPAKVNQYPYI

[8] = biological target: MAP kinase-interacting serine/threonine-protein kinase 2 (Homo sapiens, UniProt Q9HBH9); assay type: functional
[9] = biological target: Interleukin-1 receptor-associated kinase 4 (Homo sapiens, UniProt Q9NWZ3); assay type: functional
Sequence of Interleukin-1 receptor-associated kinase 4 (Q9NWZ3 whole entry): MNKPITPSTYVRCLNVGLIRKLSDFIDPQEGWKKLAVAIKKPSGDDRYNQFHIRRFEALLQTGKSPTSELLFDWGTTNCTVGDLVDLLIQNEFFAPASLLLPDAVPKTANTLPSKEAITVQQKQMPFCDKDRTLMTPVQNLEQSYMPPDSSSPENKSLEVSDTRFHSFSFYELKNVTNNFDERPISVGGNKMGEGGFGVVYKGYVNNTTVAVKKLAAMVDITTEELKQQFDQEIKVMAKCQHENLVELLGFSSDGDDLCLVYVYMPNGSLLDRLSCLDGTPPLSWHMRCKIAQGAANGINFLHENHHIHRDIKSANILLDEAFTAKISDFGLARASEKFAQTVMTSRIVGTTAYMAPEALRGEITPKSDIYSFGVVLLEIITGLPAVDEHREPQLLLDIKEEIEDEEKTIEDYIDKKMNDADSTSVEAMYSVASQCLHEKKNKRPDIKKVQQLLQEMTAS

[10] = biological target: T1, Glycogen synthase kinase-3 beta (Homo sapiens, UniProt P49841); assay type: functional;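 as to Ki: value comes from a broad kinome profiling panel, with GSK3B as the panel member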
T1 sequence (P49841 whole entry): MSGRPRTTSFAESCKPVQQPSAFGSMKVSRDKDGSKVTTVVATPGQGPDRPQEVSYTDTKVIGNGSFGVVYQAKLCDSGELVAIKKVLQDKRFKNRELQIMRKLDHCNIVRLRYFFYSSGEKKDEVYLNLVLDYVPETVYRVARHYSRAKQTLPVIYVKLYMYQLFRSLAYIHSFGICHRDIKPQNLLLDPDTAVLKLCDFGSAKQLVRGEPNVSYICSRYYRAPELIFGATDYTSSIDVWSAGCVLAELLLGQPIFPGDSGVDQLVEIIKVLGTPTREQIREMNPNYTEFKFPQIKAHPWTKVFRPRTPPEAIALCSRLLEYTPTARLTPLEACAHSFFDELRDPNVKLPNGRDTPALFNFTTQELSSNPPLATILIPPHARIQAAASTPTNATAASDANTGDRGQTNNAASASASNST

[11] = biological target: cAMP-dependent protein kinase catalytic subunit alpha (Homo sapiens, UniProt P17612); assay type: functional
[12] = biological target: Dual specificity protein kinase CLK4 (Homo sapiens, UniProt Q9HAZ1); assay type: functional
Sequence of Dual specificity protein kinase CLK4 (Q9HAZ1 whole entry): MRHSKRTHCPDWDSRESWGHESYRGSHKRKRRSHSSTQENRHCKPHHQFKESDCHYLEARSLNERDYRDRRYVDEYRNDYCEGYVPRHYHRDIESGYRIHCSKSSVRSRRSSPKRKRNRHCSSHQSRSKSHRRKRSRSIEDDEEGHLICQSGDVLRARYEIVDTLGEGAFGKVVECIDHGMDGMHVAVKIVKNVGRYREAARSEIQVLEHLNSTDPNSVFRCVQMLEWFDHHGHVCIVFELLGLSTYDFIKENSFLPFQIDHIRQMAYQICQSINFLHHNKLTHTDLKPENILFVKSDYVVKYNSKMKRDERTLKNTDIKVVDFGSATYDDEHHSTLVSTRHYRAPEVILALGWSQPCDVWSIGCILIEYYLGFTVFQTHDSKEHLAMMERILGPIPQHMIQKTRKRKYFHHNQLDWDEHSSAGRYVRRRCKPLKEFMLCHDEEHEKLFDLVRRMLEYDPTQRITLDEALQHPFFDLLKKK

[13] = biological target: Mitogen-activated protein kinase kinase kinase kinase 4 (Homo sapiens, UniProt O95819); assay type: functional
Sequence of Mitogen-activated protein kinase kinase kinase kinase 4 (O95819 whole entry): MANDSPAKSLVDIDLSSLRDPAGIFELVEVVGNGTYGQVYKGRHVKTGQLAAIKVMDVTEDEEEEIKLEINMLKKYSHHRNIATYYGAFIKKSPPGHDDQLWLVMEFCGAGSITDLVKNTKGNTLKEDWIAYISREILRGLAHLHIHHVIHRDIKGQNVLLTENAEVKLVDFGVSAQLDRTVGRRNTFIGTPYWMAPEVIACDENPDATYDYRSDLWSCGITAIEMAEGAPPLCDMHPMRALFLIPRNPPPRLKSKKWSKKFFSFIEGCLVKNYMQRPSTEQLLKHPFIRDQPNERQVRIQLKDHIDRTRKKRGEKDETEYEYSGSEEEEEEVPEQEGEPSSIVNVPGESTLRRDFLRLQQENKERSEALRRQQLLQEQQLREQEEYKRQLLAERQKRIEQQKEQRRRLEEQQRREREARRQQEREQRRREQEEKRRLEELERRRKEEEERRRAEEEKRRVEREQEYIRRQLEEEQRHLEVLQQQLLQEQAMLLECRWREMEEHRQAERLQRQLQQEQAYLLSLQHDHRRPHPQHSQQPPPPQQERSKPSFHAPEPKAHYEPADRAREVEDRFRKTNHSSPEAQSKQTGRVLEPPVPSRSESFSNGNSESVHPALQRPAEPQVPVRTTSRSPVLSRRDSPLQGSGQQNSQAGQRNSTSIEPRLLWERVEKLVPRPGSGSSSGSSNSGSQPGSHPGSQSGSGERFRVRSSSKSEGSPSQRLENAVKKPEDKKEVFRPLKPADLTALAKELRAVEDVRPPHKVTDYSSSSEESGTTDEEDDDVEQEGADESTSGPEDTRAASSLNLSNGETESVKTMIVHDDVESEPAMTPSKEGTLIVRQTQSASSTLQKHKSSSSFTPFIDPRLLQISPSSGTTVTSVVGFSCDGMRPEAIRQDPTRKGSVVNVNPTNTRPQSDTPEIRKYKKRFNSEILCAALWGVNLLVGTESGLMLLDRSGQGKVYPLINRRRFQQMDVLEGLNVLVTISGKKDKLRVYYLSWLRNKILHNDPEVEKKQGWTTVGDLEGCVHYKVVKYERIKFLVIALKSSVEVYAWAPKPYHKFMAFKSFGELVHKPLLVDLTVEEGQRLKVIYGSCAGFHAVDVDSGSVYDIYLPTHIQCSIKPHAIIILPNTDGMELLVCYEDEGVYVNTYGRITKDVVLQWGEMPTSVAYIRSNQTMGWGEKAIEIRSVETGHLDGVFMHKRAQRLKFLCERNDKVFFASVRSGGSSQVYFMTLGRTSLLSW

[14] = system: INS1; experiment: inhibitors of cytokine-induced nitrite release, dose response, cell-based, Griess absorbance, INS-1E, dry powder, set 2 (AID 488868); assay type: functional; details: Rattus norvegicus
[15] = microbe, parasite or virus in culture; assay type: functional; details: Mycobacterium tuberculosis
[16] = biological target: Heat shock protein HSP 90-alpha (Homo sapiens, UniProt P07900); assay type: functional, organism-based
[17] = A Cell Based Secondary Assay to Explore Cytotoxicity in THP-1 Cells of Compounds that Modulate Mycobacterium tuberculosis in Media Containing Glycerol versus Media without Glycerol (2).; assay type: functional
[18] = Vero cell cytotoxicity, cytotoxicity control for M. tuberculosis inhibitor project, purified and synthesized samples, set 3 (AID 504684); assay type: functional
[19] = A Cell Based Secondary Assay to Explore Cytotoxicity in HepG2 Cells of Compounds that Modulate Mycobacterium tuberculosis in Media Containing Glycerol versus Media without Glycerol (2).; assay type: functional
[20] = biological target: Glycogen synthase kinase-3 alpha (Homo sapiens, UniProt P49840); experiment: Inhibition of Human GSK-3 alpha Activity Measured in Biochemical System Using Microfluidics - 2063-06_Inhibitor_Dose_DryPowder_Activity_Set2. [Related pubchem assays (depositor defined):AID2709]
[21] = biological target: T1, Glycogen synthase kinase-3 beta; experiment: Inhibition of Human GSK-3 beta Activity Measured in Biochemical System Using Microfluidics - 2063-05_Inhibitor_Dose_DryPowder_Activity_Set2. [Related pubchem assays (depositor defined):AID2709]

Sequence of Calcium/calmodulin-dependent protein kinase type II subunit delta (Q13557 whole entry): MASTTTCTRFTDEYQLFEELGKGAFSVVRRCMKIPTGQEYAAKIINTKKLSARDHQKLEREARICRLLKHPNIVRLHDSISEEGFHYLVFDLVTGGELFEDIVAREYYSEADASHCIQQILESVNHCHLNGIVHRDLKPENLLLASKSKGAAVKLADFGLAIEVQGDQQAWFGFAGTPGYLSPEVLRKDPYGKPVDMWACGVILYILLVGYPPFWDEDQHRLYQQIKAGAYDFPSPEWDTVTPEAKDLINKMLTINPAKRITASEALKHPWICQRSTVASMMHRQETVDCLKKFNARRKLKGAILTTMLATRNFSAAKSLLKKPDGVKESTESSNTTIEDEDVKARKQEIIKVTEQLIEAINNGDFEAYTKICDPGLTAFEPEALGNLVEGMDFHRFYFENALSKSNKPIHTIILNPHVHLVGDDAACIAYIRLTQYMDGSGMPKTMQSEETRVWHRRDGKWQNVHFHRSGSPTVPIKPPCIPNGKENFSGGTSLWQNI

CCCC(=O)c1ccc(NCc2c[nH]nc2-c2ccc(C(F)(F)F)cc2)cc1
active: Ki [1] 3.98 µM | Ki [2] 3.98 µM | Ki [3] 1.26 µM | Ki [4] 2 µM

O=c1cc(-c2ccncc2)nc(NCc2cc(F)cc(F)c2)[nH]1
active: Ki [5] 6.31 µM | Ki [6] 0.00631 µM | Ki [7] 0.631 µM | Ki [8] 0.398 µM | Ki [9] 2 µM | Ki [10] 0.2 µM | Ki [11] 6.31 µM | Ki [12] 0.0126 µM | Ki [13] 0.0631 µM

C[C@@H]1CN([C@@H](C)CO)C(=O)c2cccc(NS(=O)(=O)c3ccccc3)c2O[C@H]1CN(C)Cc1ccc(C(F)(F)F)cc1
active: AC50 [14] 242 µM

CCC(C)Nc1ccc(NC(C)CC)cc1 (stereo unspecified)
active: CC50 [15] 15.9 µM | AC50 [16] 4.52 µM | CC50 [17] 3.8 µM | CC50 [18] 11.2 µM | CC50 [19] 6.68 µM

COC(=O)c1nnn(-c2nonc2N)c1CSc1nc2ccccc2s1
active: AC50 [20] 4.24 µM | AC50 [21] 1.31 µM
